Experimental data from the supplement of paper PMC10307832.

Experiments:
Assay in all cases: relative viability (nuclei count vs DMSO), 5 days (fraction); higher = more cells survive
[1] = test system: HARA; conditions: first compound 0.5 µM
Summary of the method: (§1)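 Dosing by pin tool came one day after lung cancer cell lines were seeded in 1536-well plates, using either one drug or a fixed anchor-drug dose plus five library-drug doses (not always all listed) in √10 steps. After 5 days, nuclei were counted on 4× images. Relative viability is treated-well nuclei count divided by vehicle-well nuclei count, and values are medians of duplicate plates.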

[2] = test system: NCI-H2347
Summary of the method: as §1

[3] = test system: NCI-H1395
Summary of the method: as §1

[4] = test system: NCI-H2228
Summary of the method: as §1

[5] = test system: COR-L 105
Summary of the method: as §1

[6] = test system: NCI-H1993
Summary of the method: as §1

[7] = test system: NCI-H1792
Summary of the method: as §1

[8] = test system: NCI-H358
Summary of the method: as §1

[9] = test system: NCI-H1793
Summary of the method: as §1

[10] = test system: COR-L23
Summary of the method: as §1

[11] = test system: SK-MES-1
Summary of the method: as §1

[12] = test system: NCI-H1755
Summary of the method: as §1

`COc1cc2nccc(Oc3ccc(NC(=O)Nc4cc(C)on4)c(Cl)c3)c2cc1OC` [Tivozanib] + O=C(c1cc(Cc2n[nH]c(=O)c3ccccc23)ccc1F)N1CCN(C(=O)C2CC2)CC1 [Olaparib] (partner 8 µM) showed a relative viability [1] of 0.893, a relative viability ([2]; first compound 0.005 µM) of 0.566 and a relative viability ([2]; first compound 0.01581 µM) of 0.65. It also gave a relative viability ([2]; first compound 0.05 µM) of 0.608, a relative viability ([2]; first compound 0.1581 µM) of 0.638 and a relative viability ([2]; first compound 0.5 µM) of 0.512. It also gave a relative viability ([3]; first compound 0.005 µM) of 0.421, a relative viability ([3]; first compound 0.01581 µM) of 0.443 and a relative viability ([3]; first compound 0.05 µM) of 0.476. For the same compound, the relative viability ([3]; first compound 0.1581 µM) was 0.484, the relative viability ([3]; first compound 0.5 µM) was 0.422 and the relative viability ([4]; first compound 0.005 µM) was 0.669. The relative viability ([4]; first compound 0.01581 µM) was 0.956, the relative viability ([4]; first compound 0.05 µM) was 0.771 and the relative viability ([4]; first compound 0.1581 µM) was 0.644. For the same compound, the relative viability ([4]; first compound 0.5 µM) was 0.723, the relative viability ([5]; first compound 0.005 µM) was 0.629 and the relative viability ([5]; first compound 0.01581 µM) was 0.558. It also gave a relative viability ([5]; first compound 0.05 µM) of 0.773, a relative viability ([5]; first compound 0.1581 µM) of 0.713 and a relative viability ([5]; first compound 0.5 µM) of 0.705. For the same compound, the relative viability ([6]; first compound 0.005 µM) was 0.849, the relative viability ([6]; first compound 0.01581 µM) was 1.03 and the relative viability ([6]; first compound 0.05 µM) was 0.988. It also gave a relative viability ([6]; first compound 0.1581 µM) of 0.692, a relative viability ([6]; first compound 0.5 µM) of 1.1 and a relative viability ([7]; first compound 0.005 µM) of 0.313. The relative viability ([7]; first compound 0.01581 µM) was 0.46, the relative viability ([7]; first compound 0.05 µM) was 0.516 and the relative viability ([7]; first compound 0.5 µM) was 0.294. The relative viability ([8]; first compound 0.005 µM) was 0.522, the relative viability ([8]; first compound 0.01581 µM) was 0.612 and the relative viability ([8]; first compound 0.05 µM) was 0.583. The relative viability ([8]; first compound 0.1581 µM) was 0.61, the relative viability ([8]; first compound 0.5 µM) was 0.542 and the relative viability ([9]; first compound 0.005 µM) was 0.804. The relative viability ([9]; first compound 0.01581 µM) was 0.971, the relative viability ([9]; first compound 0.05 µM) was 1.03 and the relative viability ([9]; first compound 0.5 µM) was 0.879. For the same compound, the relative viability ([10]; first compound 0.005 µM) was 0.324, the relative viability ([10]; first compound 0.01581 µM) was 0.326 and the relative viability ([10]; first compound 0.05 µM) was 0.376. The relative viability ([10]; first compound 0.1581 µM) was 0.363, the relative viability ([10]; first compound 0.5 µM) was 0.298 and the relative viability ([11]; first compound 0.005 µM) was 0.661. For the same compound, the relative viability ([11]; first compound 0.01581 µM) was 0.623, the relative viability ([11]; first compound 0.05 µM) was 0.772 and the relative viability ([11]; first compound 0.1581 µM) was 0.62. For the same compound, the relative viability ([11]; first compound 0.5 µM) was 0.583, the relative viability ([12]; first compound 0.005 µM) was 0.835 and the relative viability ([12]; first compound 0.01581 µM) was 0.829. The relative viability ([12]; first compound 0.05 µM) was 0.936, the relative viability ([12]; first compound 0.1581 µM) was 0.773 and the relative viability ([12]; first compound 0.5 µM) was 0.784.
